# Laboratory results published in patent publication US20230278972A1, “SUBSTITUTED HALOALKYL SULFONANILIDE HERBICIDES” (FMC Corporation, priority 2020, published 2023).
# How the values were obtained:
# Format in all cases: in vivo
# [1] = system: corn (Zea mays); experiment: Test A postemergence, corn; conditions: Postemergence, 0 to 100 scale (0 no effect, 100 complete control); for Corn plant response rating: visual injury vs untreated controls after approx. 10 days
# How it was run: (§1)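 Compounds in non-phytotoxic solvent with surfactant. Soil: loam/sand. Preemergence via directed soil spray after seeding; postemergence on seedlings 2–10 cm, one- to two-leaf.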
# [2] = system: ragweed (common ragweed, Ambrosia artemisiifolia); experiment: Test A postemergence, ragweed; conditions: Postemergence, 0 to 100 scale (0 no effect, 100 complete control); for Ragweed plant response rating: visual injury vs untreated controls after approx. 10 days
# How it was run: as §1
# [3] = system: galium (catchweed bedstraw, Galium aparine); experiment: Test A postemergence, galium; conditions: Postemergence, 0 to 100 scale (0 no effect, 100 complete control); for Galium plant response rating: visual injury vs untreated controls after approx. 10 days
# How it was run: (§2)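 Formulated with a surfactant in a non-phytotoxic solvent, compounds are applied to loam–sand pots, either to bare soil immediately after seeding (preemergence) or to seedlings of 2 to 10 cm bearing one to two leaves (postemergence).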
# [4] = system: pigweed (Amaranthus retroflexus); experiment: Test A preemergence, pigweed; conditions: for Pigweed plant response rating: visual injury on 0 to 100 scale (0 no effect, 100 complete control), approximately 10 days; for Plant response rating, Pigweed: 0 to 100 scale (0 no effect, 100 complete control)
# How it was run: as §2
# [5] = system: Ryegrass, Italian (Italian ryegrass, Lolium multiflorum); experiment: Test A preemergence, Ryegrass, Italian; conditions: Preemergence; for Ryegrass, Italian plant response rating: visual injury on 0 to 100 scale (0 no effect, 100 complete control), approximately 10 days; for Plant response rating, Ryegrass, Italian: 0 to 100 scale (0 no effect, 100 complete control)
# How it was run: as §1
# [6] = system: Foxtail, Giant (giant foxtail, Setaria faberi); experiment: Test A postemergence, Foxtail, Giant; conditions: Postemergence, 0 to 100 scale (0 no effect, 100 complete control); for Foxtail, Giant plant response rating: visual injury vs untreated controls after approx. 10 days
# How it was run: as §1
# [7] = system: Foxtail, Giant (giant foxtail, Setaria faberi); experiment: Test A preemergence, Foxtail, Giant; conditions: Preemergence; for Foxtail, Giant plant response rating: visual injury on 0 to 100 scale (0 no effect, 100 complete control), approximately 10 days; for Plant response rating, Foxtail, Giant: 0 to 100 scale (0 no effect, 100 complete control)
# How it was run: as §1
# [8] = system: ragweed (common ragweed, Ambrosia artemisiifolia); experiment: Test A preemergence, ragweed; conditions: Preemergence; for Ragweed plant response rating: visual injury on 0 to 100 scale (0 no effect, 100 complete control), approximately 10 days; for Plant response rating, Ragweed: 0 to 100 scale (0 no effect, 100 complete control)
# How it was run: as §1
# [9] = system: kochia (Bassia scoparia); experiment: Test A preemergence, kochia; conditions: Preemergence; for Kochia plant response rating: visual injury on 0 to 100 scale (0 no effect, 100 complete control), approximately 10 days; for Plant response rating, Kochia: 0 to 100 scale (0 no effect, 100 complete control)
# How it was run: as §1
# [10] = system: kochia (Bassia scoparia); experiment: Test A postemergence, kochia; conditions: Postemergence, 0 to 100 scale (0 no effect, 100 complete control); for Kochia plant response rating: visual injury vs untreated controls after approx. 10 days
# How it was run: as §1
# [11] = system: Ryegrass, Italian (Italian ryegrass, Lolium multiflorum); experiment: Test A postemergence, Ryegrass, Italian; conditions: Postemergence, 0 to 100 scale (0 no effect, 100 complete control); for Ryegrass, Italian plant response rating: visual injury vs untreated controls after approx. 10 days
# How it was run: as §1
# [12] = system: wheat (Triticum aestivum); experiment: Test A postemergence, wheat; conditions: Postemergence, 0 to 100 scale (0 no effect, 100 complete control); for Wheat plant response rating: visual injury vs untreated controls after approx. 10 days
# How it was run: as §2
# [13] = system: blackgrass (Alopecurus myosuroides); experiment: Test A postemergence, blackgrass; conditions: Postemergence, 0 to 100 scale (0 no effect, 100 complete control); for Blackgrass plant response rating: visual injury vs untreated controls after approx. 10 days
# How it was run: as §1
# [14] = system: barnyardgrass (Echinochloa crus-galli); experiment: Test A preemergence, barnyardgrass; conditions: Preemergence; for Barnyardgrass plant response rating: visual injury on 0 to 100 scale (0 no effect, 100 complete control), approximately 10 days; for Plant response rating, Barnyardgrass: 0 to 100 scale (0 no effect, 100 complete control)
# How it was run: as §1
# [15] = system: barnyardgrass (Echinochloa crus-galli); experiment: Test A postemergence, barnyardgrass; conditions: Postemergence, 0 to 100 scale (0 no effect, 100 complete control); for Barnyardgrass plant response rating: visual injury vs untreated controls after approx. 10 days
# How it was run: as §2
# [16] = system: pigweed (Amaranthus retroflexus); experiment: Test A postemergence, pigweed; conditions: Postemergence, 0 to 100 scale (0 no effect, 100 complete control); for Pigweed plant response rating: visual injury vs untreated controls after approx. 10 days
# How it was run: as §1
# [17] = 125 g ai/ha, visual injury approx. 10 days
# [18] = 500 g ai/ha, visual injury approx. 10 days
# [19] = 125 g ai/ha, visual injury, approx. 10 days
compound,measurement,setting,value
Cc1ccc(-c2ccnn(C)c2=O)cc1N(S(=O)(=O)C(F)(F)F)S(=O)(=O)C(F)(F)F [Compound 66],"Plant response rating, Corn",[1]; [17],0
same,Corn plant response rating,[1]; 500 g ai/ha,10
same,"Plant response rating, Ragweed",[2]; [17],0
same,Ragweed plant response rating,[2]; 500 g ai/ha,0
same,"Plant response rating, Galium",[3]; [17],50
same,Galium plant response rating,[3]; 500 g ai/ha,70
same,Pigweed plant response rating,[4]; 125 g ai/ha,0
same,"Plant response rating, Pigweed",[4]; 500 g ai/ha,30
same,"Ryegrass, Italian plant response rating",[5]; 125 g ai/ha,0
same,"Plant response rating, Ryegrass, Italian",[5]; 500 g ai/ha,0
same,"Plant response rating, Foxtail, Giant",[6]; [17],0
same,"Foxtail, Giant plant response rating",[6]; 500 g ai/ha,30
same,"Foxtail, Giant plant response rating",[7]; 125 g ai/ha,0
same,"Plant response rating, Foxtail, Giant",[7]; 500 g ai/ha,60
same,Ragweed plant response rating,[8]; 125 g ai/ha,0
same,"Plant response rating, Ragweed",[8]; 500 g ai/ha,10
same,Kochia plant response rating,[9]; 125 g ai/ha,0
same,"Plant response rating, Kochia",[9]; 500 g ai/ha,40
same,"Plant response rating, Kochia",[10]; [17],0
same,Kochia plant response rating,[10]; 500 g ai/ha,10
same,"Plant response rating, Ryegrass, Italian",[11]; [17],0
same,"Ryegrass, Italian plant response rating",[11]; 500 g ai/ha,0
same,"Plant response rating, Wheat",[12]; [17],0
same,Wheat plant response rating,[12]; 500 g ai/ha,40
same,"Plant response rating, Blackgrass",[13]; [17],0
same,Blackgrass plant response rating,[13]; 500 g ai/ha,0
same,Barnyardgrass plant response rating,[14]; 125 g ai/ha,0
same,"Plant response rating, Barnyardgrass",[14]; 500 g ai/ha,90
same,"Plant response rating, Barnyardgrass",[15]; [17],0
same,Barnyardgrass plant response rating,[15]; 500 g ai/ha,30
same,"Plant response rating, Pigweed",[16]; [17],0
same,Pigweed plant response rating,[16]; 500 g ai/ha,50
Cc1cc(C#N)c(C(=O)N(C)C)cc1NS(=O)(=O)C(F)(F)F [Compound 134],"Plant response rating, Corn",[1]; [17],0
same,Corn plant response rating,[1]; 500 g ai/ha,0
same,"Plant response rating, Ragweed",[2]; 125 g ai/ha,70
same,Ragweed plant response rating,[2]; 500 g ai/ha,40
same,"Plant response rating, Galium",[3]; [17],50
same,Galium plant response rating,[3]; 500 g ai/ha,80
same,Pigweed plant response rating,[4]; 125 g ai/ha,80
same,"Plant response rating, Pigweed",[4]; 500 g ai/ha,90
same,"Ryegrass, Italian plant response rating",[5]; 125 g ai/ha,20
same,"Plant response rating, Ryegrass, Italian",[5]; 500 g ai/ha,90
same,"Plant response rating, Foxtail, Giant",[6]; [17],0
same,"Foxtail, Giant plant response rating",[6]; 500 g ai/ha,10
same,"Foxtail, Giant plant response rating",[7]; 125 g ai/ha,40
same,"Plant response rating, Foxtail, Giant",[7]; 500 g ai/ha,100
same,Ragweed plant response rating,[8]; 125 g ai/ha,10
same,"Plant response rating, Ragweed",[8]; 500 g ai/ha,30
same,Kochia plant response rating,[9]; 125 g ai/ha,0
same,"Plant response rating, Kochia",[9]; 500 g ai/ha,0
same,"Plant response rating, Kochia",[10]; [17],40
same,Kochia plant response rating,[10]; 500 g ai/ha,70
same,"Plant response rating, Ryegrass, Italian",[11]; 125 g ai/ha,0
same,"Ryegrass, Italian plant response rating",[11]; 500 g ai/ha,0
same,"Plant response rating, Wheat",[12]; 125 g ai/ha,0
same,Wheat plant response rating,[12]; 500 g ai/ha,0
same,"Plant response rating, Blackgrass",[13]; [17],0
same,Blackgrass plant response rating,[13]; 500 g ai/ha,0
same,Barnyardgrass plant response rating,[14]; 125 g ai/ha,0
same,"Plant response rating, Barnyardgrass",[14]; 500 g ai/ha,40
same,"Plant response rating, Barnyardgrass",[15]; [17],0
same,Barnyardgrass plant response rating,[15]; 500 g ai/ha,10
same,"Plant response rating, Pigweed",[16]; 125 g ai/ha,50
same,Pigweed plant response rating,[16]; 500 g ai/ha,90
Cc1cc(C)c(N(S(=O)(=O)C(F)(F)F)S(=O)(=O)C(F)(F)F)cc1-c1cc(C(F)(F)F)nn(C)c1=O [Compound 61],"Plant response rating, Corn",[1]; [17],20
same,Corn plant response rating,[1]; 500 g ai/ha,10
same,"Plant response rating, Ragweed",[2]; [17],0
same,Ragweed plant response rating,[2]; 500 g ai/ha,30
same,"Plant response rating, Galium",[3]; [17],50
same,Galium plant response rating,[3]; 500 g ai/ha,60
same,Pigweed plant response rating,[4]; 125 g ai/ha,50
same,"Plant response rating, Pigweed",[4]; 500 g ai/ha,80
same,"Ryegrass, Italian plant response rating",[5]; 125 g ai/ha,70
same,"Plant response rating, Ryegrass, Italian",[5]; 500 g ai/ha,100
same,"Plant response rating, Foxtail, Giant",[6]; [17],0
same,"Foxtail, Giant plant response rating",[6]; 500 g ai/ha,70
same,"Foxtail, Giant plant response rating",[7]; 125 g ai/ha,100
same,"Plant response rating, Foxtail, Giant",[7]; 500 g ai/ha,100
same,Ragweed plant response rating,[8]; 125 g ai/ha,0
same,"Plant response rating, Ragweed",[8]; 500 g ai/ha,0
same,Kochia plant response rating,[9]; 125 g ai/ha,50
same,"Plant response rating, Kochia",[9]; 500 g ai/ha,90
same,"Plant response rating, Kochia",[10]; [17],40
same,Kochia plant response rating,[10]; 500 g ai/ha,60
same,"Plant response rating, Ryegrass, Italian",[11]; [17],40
same,"Ryegrass, Italian plant response rating",[11]; 500 g ai/ha,80
same,"Plant response rating, Wheat",[12]; [17],40
same,Wheat plant response rating,[12]; 500 g ai/ha,70
same,"Plant response rating, Blackgrass",[13]; [17],0
same,Blackgrass plant response rating,[13]; 500 g ai/ha,30
same,Barnyardgrass plant response rating,[14]; 125 g ai/ha,100
same,"Plant response rating, Barnyardgrass",[14]; 500 g ai/ha,100
same,"Plant response rating, Barnyardgrass",[15]; [17],20
same,Barnyardgrass plant response rating,[15]; 500 g ai/ha,80
same,"Plant response rating, Pigweed",[16]; [17],20
same,Pigweed plant response rating,[16]; 500 g ai/ha,80
Cc1cc(C)c(N(S(=O)(=O)C(F)(F)F)S(=O)(=O)C(F)(F)F)cc1N1CCC2(CCCC2)C1=O [Compound 280],"Plant response rating, Corn",[1]; 125 g ai/ha,0
same,"Plant response rating, Corn",[1]; [18],10
same,"Plant response rating, Ragweed",[2]; 125 g ai/ha,30
same,"Plant response rating, Ragweed",[2]; [18],50
same,"Plant response rating, Galium",[3]; 125 g ai/ha,80
same,"Plant response rating, Galium",[3]; [18],90
same,"Plant response rating, Pigweed",[4]; [19],70
same,Pigweed plant response rating,[4]; 500 g ai/ha,100
same,"Plant response rating, Ryegrass, Italian",[5]; [19],100
same,"Ryegrass, Italian plant response rating",[5]; 500 g ai/ha,100
same,"Plant response rating, Foxtail, Giant",[6]; 125 g ai/ha,0
same,"Plant response rating, Foxtail, Giant",[6]; [18],20
same,"Plant response rating, Foxtail, Giant",[7]; [19],100
same,"Foxtail, Giant plant response rating",[7]; 500 g ai/ha,100
same,"Plant response rating, Ragweed",[8]; [19],30
same,Ragweed plant response rating,[8]; 500 g ai/ha,70
same,"Plant response rating, Kochia",[9]; [19],40
same,Kochia plant response rating,[9]; 500 g ai/ha,70
same,"Plant response rating, Kochia",[10]; 125 g ai/ha,20
same,"Plant response rating, Kochia",[10]; [18],50
same,"Plant response rating, Ryegrass, Italian",[11]; 125 g ai/ha,40
same,"Plant response rating, Ryegrass, Italian",[11]; [18],70
same,"Plant response rating, Wheat",[12]; 125 g ai/ha,40
same,"Plant response rating, Wheat",[12]; [18],60
same,"Plant response rating, Blackgrass",[13]; 125 g ai/ha,0
same,"Plant response rating, Blackgrass",[13]; [18],0
same,"Plant response rating, Barnyardgrass",[14]; [19],90
same,Barnyardgrass plant response rating,[14]; 500 g ai/ha,90
same,"Plant response rating, Barnyardgrass",[15]; 125 g ai/ha,20
same,"Plant response rating, Barnyardgrass",[15]; [18],90
same,"Plant response rating, Pigweed",[16]; 125 g ai/ha,60
same,"Plant response rating, Pigweed",[16]; [18],90
